Data from patent US10704079B2, “Methods for the detection of beta-lactamases in a sample” (priority 2007, dated 2020).
Values after ≈ are worked out from the molar mass of the structure shown.

Legend:
Assay in all cases: Imipenem MIC assay, microbroth dilution (CLSI)
Assay type in all cases: cell-based
[1] = system: Klebsiella pneumoniae strains; conditions: for MIC: Klebsiella pneumoniae
Description: (§1) Imipenem MIC Assay was performed by microbroth dilution method according to the CLSI (Clinical and Laboratory Standards Institute) standard.
(§2) Imipenem MIC Assay were performed by microbroth dilution method according to the CLSI (Clinical and Laboratory Standards Institute) standard.

E. coli strains = conditions: Escherichia coli
Description: as §1

[2] = system: Klebsiella oxytoca strains
Description: as §1

[3] = system: Pseudomonas aeruginosa (PSEAER) strains; conditions: PSEAER strain 6 of Table 16 (MBL)
Description: as §2

SMILES: C[C@@H](O)[C@H]1C(=O)N2C(C(=O)O)=C(SCCN=CN)C[C@H]12 [Imipenem]
- Imipenem MIC ([1]; KLEPENEP strain 5 of Table 16 (WT)): ≤ 2 µg/mL
- Imipenem MIC ([1]; KLEPNEP strain 1 of Table 14 (ESBL, MBL)): = 4
- Imipenem MIC ([1]; KLEPNEP strain 1 of Table 16 (ESBL, MBL)): 4 µg/mL
- Imipenem MIC ([1]; KLEPNEP strain 2 of Table 14 (WT)): ≤ 2 µg/mL
- Imipenem MIC ([1]; KLEPNEP strain 2 of Table 16 (MBL)): > 16 µg/mL
- Imipenem MIC ([1]; KLEPNEP strain 3 of Table 14 (OSBL, Carbapenemase)): > 16 µg/mL
- Imipenem MIC ([1]; KLEPNEP strain 3 of Table 16 (ESBL, Carbapenemase)): = 8
- Imipenem MIC ([1]; KLEPNEP strain 4 of Table 14 (ESBL, C-plasmid)): ≤ 2 µg/mL
- Imipenem MIC ([1]; KLEPNEP strain 4 of Table 16 (ESBL, C-plasmid)): ≤ 2 µg/mL
- Imipenem MIC ([1]; Klebsiella pneumoniae strain 1 of Table 10 (C-plasmid)): <=2 μg/ml
- Imipenem MIC ([1]; Klebsiella pneumoniae strain 6 of Table 10 (ESBL, C-plasmid)): <=2 μg/ml
- Imipenem MIC ([1]; Klebsiella pneumoniae strain 8 of Table 10 (OSBL, C-plasmid)): <=2 μg/ml
- Imipenem MIC ([1]; Klebsiella pneumoniae strain 11 of Table 10 (OSBL, C-plasmid)): <=2 μg/ml
- Imipenem MIC ([1]; Klebsiella pneumoniae strain 14 of Table 10 (ESBL, C-plasmid)): <=2 μg/ml
- MIC ([1]; Klebsiella pneumoniae strain 2 of Table 10 (ESBL, MBL)): 4 µg/mL (≈ 13.4 µM)
- MIC ([1]; Klebsiella pneumoniae strain 3 of Table 10 (ESBL, C)): ≤ 2 µg/mL
- MIC ([1]; Klebsiella pneumoniae strain 4 of Table 10 (ESBL, Carb (KPC))): 8 µg/mL (≈ 26.7 µM)
- MIC ([1]; Klebsiella pneumoniae strain 7 of Table 10 (WT)): ≤ 2 µg/mL
- MIC ([1]; Klebsiella pneumoniae strain 9 of Table 10 (OSBL, carb)): > 16 µg/mL
- MIC ([1]; Klebsiella pneumoniae strain 10 of Table 10 (WT)): ≤ 2 µg/mL
- MIC ([1]; Klebsiella pneumoniae strain 12 of Table 10 (MBL)): > 16 µg/mL
- MIC ([1]; Klebsiella pneumoniae strain 13 of Table 10 (ESBL, MBL)): 4 µg/mL (≈ 13.4 µM)
- MIC ([1]; Klebsiella pneumoniae strain 15 of Table 10 (Carb(KPC))): 8 µg/mL (≈ 26.7 µM)
- MIC ([1]; Klebsiella pneumoniae strain 16 of Table 10 (ESBL, Carb(KPC))): 8 µg/mL (≈ 26.7 µM)
- MIC (E. coli strains; E. coli strain 1 of Table 8 (C-chromo)): ≤ 2 µg/mL
- MIC (E. coli strains; E. coli strain 3 of Table 8 (Carb (KPC))): 16 µg/mL (≈ 53.4 µM)
- MIC (E. coli strains; E. coli strain 4 of Table 8 (ESBL, C-chromo)): ≤ 2 µg/mL
- MIC (E. coli strains; E. coli strain 5 of Table 8 (IRT, C-chromo)): ≤ 2 µg/mL
- MIC (E. coli strains; E. coli strain 6 of Table 8 (OSBL, Carb)): 8 µg/mL (≈ 26.7 µM)
- MIC (E. coli strains; E. coli strain 8 of Table 8 (WT)): ≤ 0.25 µg/mL
- MIC (E. coli strains; E. coli strain 9 of Table 8 (WT)): ≤ 2 µg/mL
- MIC (E. coli strains; E. coli strain 10 of Table 8 (OSBL, C-chromo)): ≤ 2 µg/mL
- MIC (E. coli strains; E. coli strain 11 of Table 8 (ESBL, C)): ≤ 2 µg/mL
- Imipenem MIC ([2]; Klebsiella oxytoca strain 1 of Table 12 (K1-high)): ≤ 2 µg/mL
- Imipenem MIC ([2]; Klebsiella oxytoca strain 2 of Table 12 (OSBL, K1-high)): ≤ 2 µg/mL
- Imipenem MIC ([2]; Klebsiella oxytoca strain 3 of Table 12 (OSBL, K1-high, Carb)): > 16 µg/mL
- Imipenem MIC ([2]; Klebsiella oxytoca strain 4 of Table 12 (WT)): ≤ 2 µg/mL
- Imipenem MIC [3]: > 16 µg/mL
